Measured values from patent US20240344145A1, “PHARMACOGENOMICS SCORE TO MAKE DECISIONS ON THERAPY AUGMENTATION IN AML” (University of Florida Research Foundation, Incorporated, priority 2021, published 2024).

Tested on: ara-C metabolic pathway genes
Test: Association of ara-C pathway SNP genotypes with MRD1, EFS and OS in AML02 (logistic regression and Cox models; also within LDAC and HDAC arms)
Design: species or system human
Settings: within arm of AML02
Description: Genomic DNA from patients enrolled in the multi-site St. Jude AML02 trial was genotyped for 155 SNPs in 16 genes of relevance to ara-C pharmacology using sequenom iPlex platform that uses MALDI-TOF based chemistry at University of Minnesota, Biomedical Genomics Center. SNPs were selected based on previously reported studies. For SNPs lacking literature on genetic variation, SNPs were selected to capture LD blocks (European and African ancestry) on a gene. Of 155 SNPs, 1 SNP was excluded due to low call rate (<90%), 47 SNPs were excluded due to minimum allele frequency of less than 5%, 11 SNPs were excluded due to high LD (r^2>0.9) with other SNPs; two SNPs were excluded because of deviation from Hardy-Weinberg equilibrium. Genotype for the COG-AAML0531 cohort for the selected SNPs was obtained using sequenom platform or TaqMan genotyping assays, and for a few SNPs was extracted from the data available on Illumina 2.5 Omni array. Genotype calls from multiple platforms were confirmed across multiple samples randomly collected from the cohort.
SNP genotype groups in three different modes of inheritance (additive, dominant, and recessive) were tested for association with MRD1 using logistic regression models. Odds ratio (OR) and 95% confidence interval (CI) were calculated for each test. SNPs with association P-value<0.05 were considered significant. Cox-proportional hazard models were used to evaluate association of genotype groups with EFS or OS. Hazard ratio (HR) and 95% CI were calculated for each test. p-value<0.05 was considered statistically significant. Given initial risk group assignments are well-established prognostic factors associated with outcome, outcome association analysis of SNPs with and without adjusting for risk group was also performed to identify SNPs that are associated with outcome independent of risk group.
SNPs with p<0.15 in risk-adjusted univariate evaluation with clinical endpoints (MRD1, EFS, and OS) were tested for all possible combinations with a maximum of three SNPs per model in multivariable logistic regression models for association with MRD1 and Cox-proportional hazard models for association with EFS and OS. Analysis for up to 3 SNP combinations was restricted due to computational challenges as increasing the maximum number of SNPs per model drastically increases the number of models as 1000 permutations were run for each model. Models were ordered according to their Bayesian Information Criterion (BIC) and weight in favor of each model. One thousand permutation tests were performed for each model to determine statistical significance. The six unique SNPs from the most significant models for EFS and MRD1 were included in the development of the ACS10 score as described in the results section.
The multicenter AML02 clinical trial randomly assigned subjects to receive low dose ara-C (LDAC: 100 mg/m^2; n=91 patients) or high dose ara-C(HDAC: 3 g/m^2; n=75 patients) in combination with daunorubicin and etoposide as the first course of chemotherapy as described above in patient cohort section. Thus, the association of SNPs with outcome within each arm separately was also explored (Table 5).

[1] = rs4917384 (NT5C2, WT C, VAR T), MOI D
[2] = rs4980345 (SLC28A1, WT G, VAR A), MOI A
[3] = rs6552622 (DCTD, WT C, VAR G), MOI D
[4] = rs6742272 (RRM2, WT C, VAR G), MOI A
[5] = rs6834938 (DCTD, WT C, VAR T), MOI R
[6] = rs6946062 (NT5C3, WT T, VAR C), MOI D
[7] = rs7533657 (CTPS1, WT C, VAR T), MOI R
[8] = rs7543016 (CMPK1, WT C, VAR G), MOI R
[9] = rs7776847 (NT5C3, WT G, VAR A), MOI A
[10] = rs7874528 (SLC28A3, WT G, VAR T), MOI D
[11] = rs10252880 (NT5C3, WT G, VAR C), MOI A
[12] = rs10767827 (RRM1, WT G, VAR T), MOI D
[13] = rs10786736 (NT5C2, WT G, VAR C), MOI D
[14] = rs10916819 (CDA, WT A, VAR G), MOI D
[15] = rs11140525 (SLC28A3, WT G, VAR A), MOI A
[16] = rs11191558 (NT5C2, WT G, VAR A), MOI D
[17] = rs11737887 (DCTD, WT T, VAR C), MOI A
[18] = rs12554292 (SLC28A3, WT C, VAR T), MOI D
[19] = rs12806698 (RRM1, WT C, VAR A), MOI D
[20] = rs17103168 (CMPK1, WT A, VAR G), MOI D

Nc1ccn([C@@H]2O[C@H](CO)[C@@H](O)[C@@H]2O)c(=O)n1 [LDAC, cytarabine]
EFS HR (95% CI) [1]: 1.04 (0.76-1.44)
MRD1 OR (95% CI) [1]: 0.78 (0.51-1.19)
OS HR (95% CI) [1]: 0.87 (0.58-1.29)
EFS HR (95% CI) [2]: 1.81 (1-3.26)
MRD1 OR (95% CI) [2]: 1.08 (0.45-2.58)
OS HR (95% CI) [2]: 1.84 (0.95-3.55)
EFS HR (95% CI) [3]: 1.05 (0.7-1.59)
MRD1 OR (95% CI) [3]: 0.86 (0.49-1.49)
OS HR (95% CI) [3]: 1.22 (0.77-1.94)
EFS HR (95% CI) [4]: 1.5 (0.95-2.36)
MRD1 OR (95% CI) [4]: 0.49 (0.25-0.96)
OS HR (95% CI) [4]: 1.43 (0.83-2.48)
EFS HR (95% CI) [5]: 1.4 (0.83-2.35)
MRD1 OR (95% CI) [5]: 1.92 (0.82-4.48)
OS HR (95% CI) [5]: 1.75 (1.02-3)
EFS HR (95% CI) [6]: 0.75 (0.54-1.04)
MRD1 OR (95% CI) [6]: 0.94 (0.61-1.46)
OS HR (95% CI) [6]: 0.58 (0.39-0.87)
EFS HR (95% CI) [7]: 1.12 (0.62-2.02)
MRD1 OR (95% CI) [7]: 0.9 (0.36-2.27)
OS HR (95% CI) [7]: 1.05 (0.51-2.16)
EFS HR (95% CI) [8]: 0.85 (0.55-1.32)
MRD1 OR (95% CI) [8]: 2.01 (1.13-3.58)
OS HR (95% CI) [8]: 0.67 (0.37-1.23)
EFS HR (95% CI) [9]: 1.15 (0.64-2.09)
MRD1 OR (95% CI) [9]: 0.92 (0.42-2)
OS HR (95% CI) [9]: 1.91 (1.01-3.62)
EFS HR (95% CI) [10]: 0.97 (0.66-1.44)
MRD1 OR (95% CI) [10]: 1.93 (1.12-3.32)
OS HR (95% CI) [10]: 0.89 (0.54-1.45)
EFS HR (95% CI) [11]: 1.21 (0.74-1.98)
MRD1 OR (95% CI) [11]: 0.97 (0.51-1.82)
OS HR (95% CI) [11]: 1.98 (1.13-3.44)
EFS HR (95% CI) [12]: 1.09 (0.76-1.57)
MRD1 OR (95% CI) [12]: 0.98 (0.6-1.61)
OS HR (95% CI) [12]: 0.97 (0.61-1.53)
EFS HR (95% CI) [13]: 1.45 (1.03-2.03)
MRD1 OR (95% CI) [13]: 1.1 (0.66-1.83)
OS HR (95% CI) [13]: 1.37 (0.9-2.08)
EFS HR (95% CI) [14]: 1.77 (1.14-2.75)
MRD1 OR (95% CI) [14]: 1.75 (1.08-2.83)
OS HR (95% CI) [14]: 2.05 (1.12-3.74)
EFS HR (95% CI) [15]: 0.98 (0.63-1.54)
MRD1 OR (95% CI) [15]: 1.44 (0.81-2.58)
OS HR (95% CI) [15]: 1.16 (0.68-1.97)
EFS HR (95% CI) [16]: 1.49 (1.05-2.1)
MRD1 OR (95% CI) [16]: 0.96 (0.56-1.64)
OS HR (95% CI) [16]: 1.32 (0.85-2.05)
EFS HR (95% CI) [17]: 1.39 (0.73-2.66)
MRD1 OR (95% CI) [17]: 0.95 (0.4-2.25)
OS HR (95% CI) [17]: 1.76 (0.8-3.86)
EFS HR (95% CI) [18]: 0.71 (0.42-1.2)
MRD1 OR (95% CI) [18]: 1.26 (0.72-2.21)
OS HR (95% CI) [18]: 0.78 (0.43-1.42)
EFS HR (95% CI) [19]: 0.98 (0.69-1.39)
MRD1 OR (95% CI) [19]: 1.14 (0.72-1.8)
OS HR (95% CI) [19]: 1.19 (0.79-1.79)
EFS HR (95% CI) [20]: 0.96 (0.69-1.32)
MRD1 OR (95% CI) [20]: 0.55 (0.35-0.87)
OS HR (95% CI) [20]: 1.03 (0.69-1.52)
